In test [1] the test system is microorganisms. Put plainly: Morphology, biofilm and growth disrupting peptides (Table 5). The class given is cell-based. Also noted: key: A: Peptide aggregates; B: Less hyphal formation; Clumps; Diffuse clumps and small polyps; F: Diffuse growth; H: Thin; I: Growth inhibition; Microcolony formation; Rippled; Small polyps; Thick; W: Halo formation on top, microlonies on bottom. The source says:
In certain embodiments peptides that induce alterations in phenotype or other biological activities can also be used as antimicrobial effector moieties.

The subject of test [2] is microorganisms. Briefly: Targeting peptide binding to target microorganisms (Tables 3, 10, 12). The following applies: microorganism(s) the targeting peptide binds; binding in aqueous buffers varied with peptide solubility, preferably 1x PBS.
Test [3] has as its system microorganisms. Briefly: Peptide activities: targeting/binding, antimicrobial, growth or phenotype altering (Tables 7, 8). The class given is cell-based. The note with it: peptides having multiple activities.

“Also recorded” adds a separate entry of the source. Ends that are not written are not given here.

With “PF-452: peptide having multiple activities (MNNWIKVAQISVTVINEVIDIMKEKQNGGK; Peptide with targeting and/or antimicrobial activity)”, the “Organism, effect” value was “E. coli (C)” with microorganisms [1] (E. coli); “E. faecalis (C)” with microorganisms [1] (E. faecalis); “MRSA (C)” in the test on microorganisms [1] (MRSA); “S. epidermidis (C)” with microorganisms [1] (S. epidermidis); “S. pneumoniae (R)” in the test with microorganisms [1] (S. pneumoniae). In the test on microorganisms [2], the “Target(s)” value is given as “M. luteus; also recorded: P. aeruginosa; also recorded: C. albicans; also recorded: S. pneumoniae; also recorded: E. faecalis; also recorded: C. jeikeium; also recorded: M. smegmatis”. The Activities result in the test with microorganisms [3] is “G B”.
In the case of “PF-453: peptide having multiple activities (IIQDIAHAFGY; Peptide with targeting and/or antimicrobial activity)”, the “Organism, effect” value in the test on microorganisms [1] (E. coli) is “E. coli (C)”; in the test on microorganisms [1] (MRSA) it was “MRSA (C)”; with microorganisms [1] (S. epidermidis), “S. epidermidis (C)”; in the test with microorganisms [1] (S. pneumoniae) it was “S. pneumoniae (C)”. For the same substance, the “Target(s)” value in the test with microorganisms [2] is given as “M. luteus; also recorded: E. coli; also recorded: P. aeruginosa; also recorded: S. pneumoniae; also recorded: E. faecalis; also recorded: C. jeikeium; also recorded: C. jejuni”. Besides, the Activities result in the test with microorganisms [3] is given as “G B”.
As to “PF-456: peptide having multiple activities (TCVKPRTIN; Peptide with targeting and/or antimicrobial activity)”, the figures for the “Organism, effect” value in the test on microorganisms [1] (C. jejuni) and in the test on microorganisms [1] (E. faecalis) were “C. jejuni (A)” and “E. faecalis (A)”, respectively. Further, in the test on microorganisms [2], the “Target(s)” value was “C. albicans and MRSA and E. faecalis and C. jeikeium and C. jejuni”. In the test with microorganisms [3], the Activities result is reported as “G B”.
On to “PF-457: peptide having multiple activities (INKYHHIA; Peptide with targeting and/or antimicrobial activity)”, for which, in the test on microorganisms [1] (S. pneumoniae), the “Organism, effect” value is “S. pneumoniae (M)”. For the same substance, the “Target(s)” value with microorganisms [2] is given as “C. albicans; also recorded: S. pneumoniae; also recorded: E. faecalis; also recorded: C. jeikeium”. In the test on microorganisms [3], the Activities result is reported as “G B”.
For “PF-459: peptide having multiple activities (EKRMSFNENQSHRPLL; Peptide with targeting and/or antimicrobial activity)” the same measures were “S. pneumoniae (H)”, “P. aeruginosa” and “G B”.
Take “PF-462: peptide having multiple activities (KNKTDTL; Peptide with targeting and/or antimicrobial activity)”: the “Organism, effect” value with microorganisms [1] (S. pneumoniae) is “S. pneumoniae (H)”. Besides, the “Target(s)” value in the test on microorganisms [2] is listed as “E. faecalis; also recorded: C. jeikeium”. Further, the Activities entry with microorganisms [3] is listed as “G B”.
As for “PF-464: peptide having multiple activities (VDMVNRFLGN; Peptide with targeting and/or antimicrobial activity)”, in the test on microorganisms [1] (S. pneumoniae), the “Organism, effect” value is given as “S. pneumoniae (S)”. Also, the “Target(s)” value with microorganisms [2] was “S. epidermidis and C. albicans and MRSA and S. pneumoniae and E. faecalis and C. jeikeium and C. jejuni”. The Activities result with microorganisms [3] is recorded as “G B”.
In the case of “PF-466: peptide having multiple activities (VRKSDQ; Peptide with targeting and/or antimicrobial activity)”, in the test on microorganisms [1] (S. pneumoniae), the “Organism, effect” value is on record as “S. pneumoniae (H)”. For the same substance, the “Target(s)” value with microorganisms [2] is “MRSA and C. jeikeium and C. jejuni”. Also, the Activities result with microorganisms [3] was “G B”.
As for “PF-467: peptide having multiple activities (YYKDYFKEI; Peptide with targeting and/or antimicrobial activity)”, the “Organism, effect” value in the test with microorganisms [1] (S. pneumoniae) is recorded as “S. pneumoniae (H)”. The “Target(s)” value in the test on microorganisms [2] was “MRSA and E. faecalis and C. jeikeium and C. jejuni”. Also, the Activities entry in the test on microorganisms [3] is given as “G B”.
For “PF-470: peptide having multiple activities (PYSDSYATRPHWEQHRAR; Peptide with targeting and/or antimicrobial activity)”, the “Organism, effect” value with microorganisms [1] (C. jejuni) is on record as “C. jejuni (A)”; with microorganisms [1] (E. faecalis), “E. faecalis (A)”. For the same substance, in the test with microorganisms [2], the “Target(s)” value is “M. luteus and E. coli and MRSA and E. faecalis and C. jeikeium and C. jejuni”. The Activities entry with microorganisms [3] is recorded as “G B”.
As to “PF-476: peptide having multiple activities (WADAQYKLCENCSE; Peptide with targeting and/or antimicrobial activity)”, in the test with microorganisms [1] (S. pneumoniae), the “Organism, effect” value is “S. pneumoniae (H)”. The “Target(s)” value in the test on microorganisms [2] is “M. luteus; also recorded: P. mirabilis; also recorded: C. albicans; also recorded: S. pneumoniae; also recorded: E. faecalis; also recorded: C. jeikeium; also recorded: C. jejuni”. Further, the Activities entry in the test on microorganisms [3] is recorded as “G B”.
As for “PF-484: peptide having multiple activities (HKKDIRKQVFKN; Peptide with targeting and/or antimicrobial activity)”, the “Organism, effect” value in the test with microorganisms [1] (E. faecalis) is listed as “E. faecalis (A)”. The “Target(s)” value in the test with microorganisms [2] is on record as “S. epidermidis; also recorded: M. luteus; also recorded: P. mirabilis; also recorded: E. coli; also recorded: E. faecalis; also recorded: C. jeikeium; also recorded: C. jejuni”. Further, the Activities result in the test on microorganisms [3] was “G B”.
In the case of “PF-513: peptide having multiple activities (SNGVGLGVGIGSGIRF-NH2)”, in the test with microorganisms [1] (S. pneumoniae), the “Organism, effect” value is given as “S. pneumoniae (M)”. In addition, the “Target(s)” value with microorganisms [2] was “C. albicans”. In addition, the Activities result with microorganisms [3] was “G B”.
As to “PF-514: peptide having multiple activities (QRFYKLFYHIDLTNEQALKLFQVK; Peptide with targeting and/or antimicrobial activity)”, the “Organism, effect” value in the test with microorganisms [1] (E. coli) is “E. coli (R)”; with microorganisms [1] (E. faecalis) it was “E. faecalis (C)”; in the test with microorganisms [1] (S. epidermidis), “S. epidermidis (C)”; in the test on microorganisms [1] (S. pneumoniae), “S. pneumoniae (M)”. Further, in the test with microorganisms [2], the “Target(s)” value is “S. epidermidis and E. coli and P. aeruginosa and C. albicans and MRSA and S. pneumoniae and E. faecalis and C. jeikeium”. Moreover, the Activities entry in the test on microorganisms [3] is reported as “G B”.
“PF-515: peptide having multiple activities (DKSTQDKDIKQAKLLAQELGL-NH2)”: in the test on microorganisms [1] (S. pneumoniae), the “Organism, effect” value was “S. pneumoniae (H)”. The “Target(s)” value in the test with microorganisms [2] is “S. epidermidis; also recorded: C. albicans; also recorded: S. pneumoniae; also recorded: C. jeikeium”. In addition, the Activities entry with microorganisms [3] was “G B”.
The matching figures for “PF-517: peptide having multiple activities (VKPTMTASLISTVC; Peptide with targeting and/or antimicrobial activity)”: “S. pneumoniae (M)”, “C. jejuni” and “G B”.
In the case of “PF-518: peptide having multiple activities (SFYSKYSRYIDNLAGAIFLFF; Peptide with targeting and/or antimicrobial activity)”, the “Organism, effect” value is “E. coli (R)” in the test on microorganisms [1] (E. coli); “E. faecalis (C)” in the test on microorganisms [1] (E. faecalis); “MRSA (C)” with microorganisms [1] (MRSA); “S. epidermidis (C)” in the test on microorganisms [1] (S. epidermidis); “S. pneumoniae (M)” with microorganisms [1] (S. pneumoniae). Also, in the test on microorganisms [2], the “Target(s)” value was “S. epidermidis and E. coli and P. aeruginosa and C. albicans and MRSA and S. pneumoniae and E. faecalis”. The Activities entry in the test on microorganisms [3] is listed as “G B”.
Regarding “PF-519: peptide having multiple activities (YLVYSGVLATAAAF-NH2)”, the “Organism, effect” value in the test on microorganisms [1] (E. coli) is “E. coli (R)”; with microorganisms [1] (E. faecalis), “E. faecalis (C)”; in the test with microorganisms [1] (MRSA), “MRSA (C)”; with microorganisms [1] (S. pneumoniae), “S. pneumoniae (S)”. In the test on microorganisms [2], the “Target(s)” value is “M. luteus; also recorded: E. faecalis; also recorded: C. jeikeium”. In addition, the Activities entry in the test on microorganisms [3] is given as “G B”.
As to “PF-528: peptide having multiple activities (LVDVVVLIRRHLPKSCS-NH2)”, the “Organism, effect” value was “C. albicans (C)” with microorganisms [1] (C. albicans); “E. coli (H)” in the test with microorganisms [1] (E. coli); “MRSA (H)” in the test on microorganisms [1] (MRSA); “S. epidermidis (H)” with microorganisms [1] (S. epidermidis); “S. pneumoniae (R)” in the test on microorganisms [1] (S. pneumoniae). Besides, the “Target(s)” value in the test on microorganisms [2] is “S. epidermidis and P. aeruginosa and C. albicans and MRSA and S. pneumoniae and E. faecalis”. For the same substance, in the test with microorganisms [3], the Activities result is given as “G B”.
With “PF-540: peptide having multiple activities (KSILILIKVIFIGQTTIIL; Peptide with targeting and/or antimicrobial activity)”, the “Organism, effect” value in the test on microorganisms [1] (E. coli) is on record as “E. coli (R)”; in the test with microorganisms [1] (MRSA) it was “MRSA (H)”; in the test on microorganisms [1] (S. epidermidis), “S. epidermidis (H)”; with microorganisms [1] (S. pneumoniae), “S. pneumoniae (R)”. For the same substance, the “Target(s)” value in the test on microorganisms [2] was “C. albicans”. The Activities result in the test on microorganisms [3] is recorded as “G B”.
In the case of “PF-542: peptide having multiple activities (KKDNPSLNDQDKNAVLNLLALAK; Peptide with targeting and/or antimicrobial activity)”, in the test with microorganisms [1] (S. pneumoniae), the “Organism, effect” value is “S. pneumoniae (H)”. In the test with microorganisms [2], the “Target(s)” value was “C. jeikeium”. The Activities entry in the test on microorganisms [3] is reported as “G B”.
With “PF-546: peptide having multiple activities (PIIAPTIKTQIQ; Peptide with targeting and/or antimicrobial activity)”, the “Organism, effect” value was “C. jeikeium (D)” in the test with microorganisms [1] (C. jeikeium); “E. coli (R)” in the test on microorganisms [1] (E. coli); “E. faecalis (D)” in the test on microorganisms [1] (E. faecalis); “MRSA (D)” in the test on microorganisms [1] (MRSA); “S. epidermidis (D)” in the test with microorganisms [1] (S. epidermidis); “S. pneumoniae (D)” in the test with microorganisms [1] (S. pneumoniae). Further, the “Target(s)” value in the test on microorganisms [2] is on record as “S. epidermidis; also recorded: E. coli; also recorded: C. albicans; also recorded: S. pneumoniae; also recorded: E. faecalis; also recorded: C. jeikeium”. Moreover, the Activities entry in the test on microorganisms [3] is “G B”.

For the origin of these results see patent publication US20110039763A1, “TARGETED ANTIMICROBIAL MOIETIES” (C3 JIAN, INC., priority 2009, published 2011).
